Data on 63 compounds can be found in PMC4850295, “Using a Genetically Encoded Sensor to Identify Inhibitors of Toxoplasma gondii Ca^2+ Signaling” (The Journal of Biological Chemistry, 2016).

In the assay the test system is T1, GCaMP5-expressing T. gondii.
T1 construct: whole extracellular parasites expressing GCaMP5 Ca2+ sensor
Also noted: species or system GCaMP5-expressing Toxoplasma gondii, extracellular; GCaMP5 fluorescence (cytosolic Ca2+) after 100 uM zaprinast in compound-pretreated extracellular parasites, background-subtracted, relative to zaprinast alone. The settings on record: 100 uM zaprinast stimulation; 10 min pretreatment; mean of two replicates; 0.23 h. An outline of the steps: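 Extracellular GCaMP5-expressing parasites in Ringer's solution were pretreated with compounds (single 10 μM dose, two biological replicates) for 10 min, then stimulated with 100 μM zaprinast at 37 °C for 4 min. Fluorescence read at 485/525 nm, basal subtracted, expressed as fold change relative to zaprinast-only parasites.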

With `COc1ccc(Nc2nccc(N3CCC(NC(=O)Nc4cccc(C(C)=O)c4)C3)n2)cc1` (stereo not drawn) [GSK1379731A], the “fold change in fluorescence relative to zaprinast alone” value is 0.6491.

In the case of `COc1cc(Nc2nccc(N3CCC(NC(=O)Nc4cccc(C(C)=O)c4)C3)n2)cc(OC)c1OC` (stereo not drawn) [GSK1379753A], the “fold change in fluorescence relative to zaprinast alone” value is on record as 1.391.

For `COc1cc(Nc2nccc(-c3c(-c4cccc(NC(=O)c5c(F)cccc5F)c4)nn4ncccc34)n2)cc(OC)c1OC` [GSK327238A], the “fold change in fluorescence relative to zaprinast alone” value is reported as 1.28.

`c1ccc(-c2cnc3nccnn23)cc1` [AH20685XX]: the “fold change in fluorescence relative to zaprinast alone” value is listed as 1.296.

As for `Cc1ccc(C)c(NC(=O)NC2CCN(c3ccnc(Nc4ccc(F)cc4)n3)C2)c1` (stereo not drawn) [GSK1379720A], the “fold change in fluorescence relative to zaprinast alone” value is 1.268.

As for `Oc1cc(Nc2ccnc3cc(I)ccc23)ccc1F` [GW552771X], the “fold change in fluorescence relative to zaprinast alone” value came to 0.9648.

Consider `NC(=O)c1cccc(Nc2nccc(Nc3cccc(F)c3)n2)c1` [GW759710A], for which the “fold change in fluorescence relative to zaprinast alone” value is given as 1.166.

For `COc1ccc(Nc2ncc(-c3ccccc3)o2)cc1OC` [GW575533A], the “fold change in fluorescence relative to zaprinast alone” value is on record as 1.197.

With `CC(C)c1nc(-c2ccc(F)c(NS(=O)(=O)c3c(F)cccc3F)c2)c(-c2ccnc(Nc3ccc(N4CCOCC4)nc3)n2)s1` [GSK1804250A], the “fold change in fluorescence relative to zaprinast alone” value is 1.361.

On to `Fc1cc(Cl)ccc1Nc1ccnc2cc(-c3ccc(CN4CCCCC4)o3)ccc12` [GW560116X], for which the “fold change in fluorescence relative to zaprinast alone” value stood at 0.6823.

As to `Fc1ccc(-c2nc[nH]c2-c2ccncc2)cc1` [SB-217360], the “fold change in fluorescence relative to zaprinast alone” value stood at 0.1031.

Turning to `COc1ccc(Nc2nccc(N3CCC(NS(=O)(=O)c4ccc(NC(C)=O)cc4)C3)n2)cc1` (stereo not drawn) [GSK1379729A], the “fold change in fluorescence relative to zaprinast alone” value was found to be 1.531.

Turning to `Cc1cc(O)cc(C)c1/C=C/c1cncc(-c2nn[nH]n2)c1` [GW441806A], the “fold change in fluorescence relative to zaprinast alone” value was 1.117.

As to `CCn1c(-c2nonc2N)nc2cnc(Oc3cccc(NC(=O)c4ccc(OCCN5CCOCC5)cc4)c3)cc21` [GSK269962B], the “fold change in fluorescence relative to zaprinast alone” value is listed as 1.303.

`COc1cccc(-n2ncc3c(N/N=C/c4ccc(S(C)(=O)=O)cc4)ncnc32)c1` [GW811168X]: the “fold change in fluorescence relative to zaprinast alone” value was 0.6755.

Consider `COc1ccc(Nc2nccc(N3CCC(NC(=O)C(C)c4ccc(Cl)cc4)CC3)n2)cc1` (stereo not drawn) [GSK1379812A], for which the “fold change in fluorescence relative to zaprinast alone” value came to 1.185.

Take `NCCNS(=O)(=O)c1ccc(-c2ccnc3[nH]ccc23)cc1` [GSK977617A]: the “fold change in fluorescence relative to zaprinast alone” value is 1.223.

Turning to `Nc1n[nH]c2cnc(-c3ccccc3)cc12` [SB-642124-AAA], the “fold change in fluorescence relative to zaprinast alone” value turned out to be 1.394.

As for `O=C(Nc1c(F)cccc1F)c1cc(C(=O)c2ccccc2F)c[nH]1` [GSK1326180A], the “fold change in fluorescence relative to zaprinast alone” value worked out at 0.8808.

For `CN(C)c1ccc2c(c1)/C(=C/Nc1ccc(S(N)(=O)=O)cc1)C(=O)N2` [GW416469X], the “fold change in fluorescence relative to zaprinast alone” value is recorded as 1.109.

Take `O=C(Nc1n[nH]c2cc(-c3cccs3)ccc12)C1CC1` [SB-731284]: the “fold change in fluorescence relative to zaprinast alone” value is 1.194.

Take `CNC(=O)c1ccccc1Nc1nc(Nc2cccc(CS(C)(=O)=O)c2)ncc1C` [GSK1520489A]: the “fold change in fluorescence relative to zaprinast alone” value is listed as 1.293.

Regarding `Nc1nc(-c2cccnc2)c(-c2ccnc3ccccc23)s1` [GW684083X], the “fold change in fluorescence relative to zaprinast alone” value amounted to 0.9409.

On to `COc1ccc(CNC(=O)NC2CCN(c3ccnc(Nc4ccc(OC)cc4)n3)C2)cc1` (stereo not drawn) [GSK1379727A], for which the “fold change in fluorescence relative to zaprinast alone” value came to 1.253.

In the case of `CCNCC(Cc1ccccc1)NC(=O)c1cc(Br)c(-c2ccnc3[nH]ccc23)s1` (stereo not drawn) [GSK1383280A], the “fold change in fluorescence relative to zaprinast alone” value came to 0.5995.

Take `COc1cc(C)c(NC(=O)CN(C)C)cc1Nc1nc(Nc2cccc(F)c2C(N)=O)c2cc[nH]c2n1` [GSK2213727A]: the “fold change in fluorescence relative to zaprinast alone” value is given as 1.59.

For the compound `COc1ccc(Nc2nccc(N3CCC(NC(=O)c4cccc(C#N)c4)C3)n2)cc1` (stereo not drawn) [GSK1379730A], the “fold change in fluorescence relative to zaprinast alone” value is on record as 0.96.

Regarding `COc1cc(C=NNc2ncnc3c2cnn3Cc2ccccc2)ccc1O` [GW643971X], the “fold change in fluorescence relative to zaprinast alone” value was 1.09.

In the case of `O=C1Nc2ccc(C(=O)c3ccco3)cc2C1=Cc1cc(Cl)c(O)c(Cl)c1` [GW406108X], the “fold change in fluorescence relative to zaprinast alone” value is on record as 1.311.

Turning to `Nc1ncnc2c1ncn2-c1cccc2ccccc12` [SKF-97184], the “fold change in fluorescence relative to zaprinast alone” value is recorded as 0.9854.

In the case of `CCn1c(-c2ccccc2)nc2cnccc21` [SB-733416], the “fold change in fluorescence relative to zaprinast alone” value was determined as 1.146.

As for `CCn1c(-c2ccc[nH]c2=O)nc2cnccc21` [SB-736715], the “fold change in fluorescence relative to zaprinast alone” value was 0.9368.

For the compound `O=C(NCCCN1CCOCC1)c1cccc(Nc2nccc(Nc3ccc(Oc4ccccc4)cc3)n2)c1` [GW663929X], the “fold change in fluorescence relative to zaprinast alone” value turned out to be 1.429.

Regarding `Fc1cccc(COc2ccc(Nc3ncnc4sc(-c5ccco5)cc34)cc2Cl)c1` [GSK969786A], the “fold change in fluorescence relative to zaprinast alone” value is reported as 0.8987.

On to `CNC(=O)c1cncc(/C=C/c2c(C)cccc2C)c1` [GW445012X], for which the “fold change in fluorescence relative to zaprinast alone” value is 1.157.

As for `O=C1NC(=O)C(c2ccc(Cl)cc2)=C1Nc1cccc(Cl)c1` [SB-317651], the “fold change in fluorescence relative to zaprinast alone” value worked out at 0.9895.

Turning to `Cn1cc(-c2ccc3c(c2)CCN3C(=O)Cc2cccc(F)c2)c2c(N)ncnc21` [GSK2603358A], the “fold change in fluorescence relative to zaprinast alone” value is 1.56.

As to `COc1ccc(-c2nn3ncccc3c2-c2ccnc(Nc3cccc(C(F)(F)F)c3)n2)cc1` [GW827105X], the “fold change in fluorescence relative to zaprinast alone” value is listed as 0.7957.

With `CNc1nccc(-c2c(-c3ccc(F)cc3)ncn2C2CCN(C)CC2)n1` [SB-222903], the “fold change in fluorescence relative to zaprinast alone” value was found to be 0.211.

Take `Cc1ccc(NC(=O)Nc2cccc(Cl)c2)cc1-c1ccc(C(=O)Nc2ccncc2)cc1` [GSK1398468A]: the “fold change in fluorescence relative to zaprinast alone” value is reported as 0.4262.

In the case of `COC(=O)Nc1nc2ccc(Oc3ccc(NC(=O)Nc4cc(C(F)(F)F)ccc4F)cc3)cc2n1C` [GW692089A], the “fold change in fluorescence relative to zaprinast alone” value is reported as 1.505.

Turning to `C[C@@H](Oc1cc(-n2cnc3cc(-c4cnn(C)c4)ccc32)sc1C(N)=O)c1ccccc1Cl` [GSK580432A], the “fold change in fluorescence relative to zaprinast alone” value is 1.313.

In the case of `N#CCc1ccc(Nc2nccc(Nc3ccc(Oc4ccccc4)cc3)n2)cc1` [GW639905A], the “fold change in fluorescence relative to zaprinast alone” value was determined as 1.192.

Take `CCCc1ccc(S(=O)(=O)NC2CCN(c3ccnc(Nc4ccc(F)cc4)n3)C2)cc1` (stereo not drawn) [GSK1379715A]: the “fold change in fluorescence relative to zaprinast alone” value is recorded as 0.5743.

On to `O=C(Nc1cccc(-c2nn3ccccc3c2-c2ccnc(Nc3cccc(F)c3)n2)c1)c1c(F)ccc(F)c1Cl` [GSK357952A], for which the “fold change in fluorescence relative to zaprinast alone” value stood at 1.061.

Consider `NS(=O)(=O)c1cccc(-c2ccc3ncc(N4CCOCC4)nc3c2)c1` [GSK1535721A], for which the “fold change in fluorescence relative to zaprinast alone” value was found to be 1.22.

Turning to `COc1ccc(C2=C(Nc3cccc(C(=O)O)c3)C(=O)NC2=O)cc1` [SB-390765], the “fold change in fluorescence relative to zaprinast alone” value amounted to 0.6431.

As to `COc1cc2c(cc1Nc1nc(Nc3ccsc3C(N)=O)c3cc[nH]c3n1)N(C(=O)CN(C)C)CCC2(C)C` [GSK2163632A], the “fold change in fluorescence relative to zaprinast alone” value is 1.131.

On to `O=C(Nc1cccc(-c2nn3ncccc3c2-c2ccnc(Nc3ccccc3)n2)c1)c1c(F)cccc1F` [GSK198271A], for which the “fold change in fluorescence relative to zaprinast alone” value came to 1.278.

Take `COc1ccc(Nc2nccc(N3CCC(NC(=O)C(C)c4ccc(Cl)cc4)C3)n2)cc1` (stereo not drawn) [GSK1379735A]: the “fold change in fluorescence relative to zaprinast alone” value worked out at 0.6825.

`NS(=O)(=O)c1ccc(N/N=C2\C(=O)Nc3ccc(C(=O)NCCCn4ccnc4)cc32)cc1` [GW290597X]: the “fold change in fluorescence relative to zaprinast alone” value stood at 1.214.

Consider `CCCN(CCS(C)(=O)=O)Cc1ccc(-c2ccc3ncnc(Nc4ccc(OCc5cccc(F)c5)c(Cl)c4)c3c2)o1` [GW621823A], for which the “fold change in fluorescence relative to zaprinast alone” value came out at 0.6108.

Regarding `CN(C)CCOc1ccc(-c2cc(-c3cn[nH]c3-c3ccccn3)ccn2)cc1` [GW835314X], the “fold change in fluorescence relative to zaprinast alone” value is 0.7262.

With `COc1cccc(CNC(=O)NC2CCN(c3ccnc(Nc4ccc(F)cc4)n3)C2)c1` (stereo not drawn) [GSK1379723A], the “fold change in fluorescence relative to zaprinast alone” value is recorded as 0.5252.

`NS(=O)(=O)c1ccc(Nc2cc(-c3ccc(O)c(F)c3)n[nH]2)cc1` [GW831091X]: the “fold change in fluorescence relative to zaprinast alone” value was 1.195.

As for `Cc1ccc(O)cc1Nc1ccnc2ccc(C(C)(C)C)cc12` [GW856805X], the “fold change in fluorescence relative to zaprinast alone” value is on record as 0.3414.

For the compound `c1ccc(-c2[nH]ncc2-c2ccnc(-c3ccc(CN4CCOCC4)cc3)c2)nc1` [GW776245A], the “fold change in fluorescence relative to zaprinast alone” value was 1.036.

With `COc1cc2nccc(Nc3ccc(Oc4ccccc4)cc3)c2cc1OC` [GI261656A], the “fold change in fluorescence relative to zaprinast alone” value is 0.5416.

For `Nc1ccc(C#Cc2cncnc2Nc2ccc(OCc3cccc(F)c3)c(Cl)c2)cc1` [GW659893X], the “fold change in fluorescence relative to zaprinast alone” value stood at 0.972.

Take `O=c1[nH]cc(-c2ccc(O)cc2)c2sc(-c3ccncc3)cc12` [GSK1033723A]: the “fold change in fluorescence relative to zaprinast alone” value is 1.385.

`COc1ccc(Nc2nccc(NCCNC(=O)Nc3cc(C)ccc3C)n2)cc1` [GSK1379899A]: the “fold change in fluorescence relative to zaprinast alone” value amounted to 1.713.

For the compound `Nc1nc(-c2nccs2)c(-c2ccnc3ccccc23)s1` [GW693542X], the “fold change in fluorescence relative to zaprinast alone” value was 0.8815.

Regarding `Cc1[nH]nc2ccc(-c3cc(OC[C@@H](N)Cc4ccccc4)cnc3-c3ccoc3)cc12` [GSK507358A], the “fold change in fluorescence relative to zaprinast alone” value is 0.7404.
